Key:
[1] = target: T1, Human pancreatic α-amylase (HPA) (Homo sapiens, UniProt P04746); experiment: Ligand binding to HPA by fluorescence quenching titration, thermodynamic parameters
T1 construct: purchased Sigma Aldrich, USA
T1 sequence (P04746 16-511): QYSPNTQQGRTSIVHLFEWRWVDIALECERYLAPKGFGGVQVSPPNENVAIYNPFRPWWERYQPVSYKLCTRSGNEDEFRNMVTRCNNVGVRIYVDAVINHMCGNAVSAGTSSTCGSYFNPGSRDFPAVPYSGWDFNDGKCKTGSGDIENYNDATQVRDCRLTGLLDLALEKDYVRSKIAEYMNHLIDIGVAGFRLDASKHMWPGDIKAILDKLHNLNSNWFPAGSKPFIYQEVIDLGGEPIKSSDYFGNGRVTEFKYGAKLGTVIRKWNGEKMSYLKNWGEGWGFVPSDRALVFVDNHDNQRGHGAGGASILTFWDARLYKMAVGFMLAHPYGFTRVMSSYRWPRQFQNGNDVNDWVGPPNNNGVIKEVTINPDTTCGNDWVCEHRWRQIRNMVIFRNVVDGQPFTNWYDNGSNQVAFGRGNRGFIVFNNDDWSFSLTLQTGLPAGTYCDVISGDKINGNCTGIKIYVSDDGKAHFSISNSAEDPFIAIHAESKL
Experimental: Ligand binding studies using fluorescence measurements of HPA were carried as described in our earlier report. […] Non-linear and linear regression analyses were used to analyze the data.
The thermodynamic parameters, association constants (K a), dissociation constant (K d) and Gibbs free energy (ΔG°) of binding for azadiradione and gedunin were determined at various temperatures 25°C to 60°C by fluorescence quenching studies.

[2] = target: T1, Human pancreatic α-amylase (HPA); experiment: Human pancreatic α-amylase inhibition and stoichiometry (DNSA); type: biochemical; settings: percentage inhibition versus molar ratio of HPA and inhibitor; HPA 14.85 μM
Source text: The control HPA (0.25 U) without inhibitors represented 100% enzyme activity.

[3] = target: T1, Human pancreatic α-amylase (HPA); experiment: HPA inhibition kinetics (Michaelis-Menten, Lineweaver-Burk, secondary plots); type: biochemical
Experimental: The mode of inhibition of HPA by the lead inhibitors azadiradione and gedunin were determined using Michaelis-Menton and Lineweaver-Burk equations. Starch (1–5mg ml^-1) and maltopentaose (0.05–0.4mM) were incubated with inhibitors-HPA for 10 and 2.5 min, respectively and the residual enzyme activity determined by DNSA method for starch and Nelson-Somogyi’s method for maltopentaose.The inhibitor constants(K i) were determined on the basis of mode of inhibition.

[4] = target: T2, Porcine pancreatic α-amylase (PPA) (Sus scrofa, UniProt P00690); experiment: Porcine pancreatic α-amylase inhibition assay, chromogenic DNSA method (primary screening); type: biochemical; settings: starch 1% w/v, pH 6.9, 37°C
T2 construct: purchased SRL, Mumbai, India
T2 sequence (P00690 16-511): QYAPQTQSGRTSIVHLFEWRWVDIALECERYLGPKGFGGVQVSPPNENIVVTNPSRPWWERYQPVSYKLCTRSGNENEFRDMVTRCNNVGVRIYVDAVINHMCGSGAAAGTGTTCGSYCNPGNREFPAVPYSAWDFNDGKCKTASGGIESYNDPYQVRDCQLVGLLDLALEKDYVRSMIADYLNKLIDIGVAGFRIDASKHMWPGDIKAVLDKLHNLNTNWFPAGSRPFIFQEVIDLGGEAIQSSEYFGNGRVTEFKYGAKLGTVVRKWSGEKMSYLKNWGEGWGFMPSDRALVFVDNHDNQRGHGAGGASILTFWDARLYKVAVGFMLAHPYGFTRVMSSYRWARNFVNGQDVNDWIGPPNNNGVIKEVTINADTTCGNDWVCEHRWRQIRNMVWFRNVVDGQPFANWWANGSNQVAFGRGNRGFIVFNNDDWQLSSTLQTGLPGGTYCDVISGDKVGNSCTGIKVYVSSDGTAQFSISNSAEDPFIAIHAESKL
Experimental: The inhibition assay was performed using the chromogenic DNSA method. PPA was used for preliminary screening of α-amylase inhibitors. […] Moreover a high degree gene sequence similarity (~ 90%) exists between human salivary α-amylase (HSA) and PPA as reported by (Buisson et al 1987). Brayer et al (1995) have reported 97% primary sequence similarity between human salivary and human pancreatic α-amylases and a 70% structural similarity between PPA and HPA [11]. Thus, a high degree of similarity between PPA and HPA allows us to use it as the enzyme for screening inhibitors.
In brief, the total assay mixture consisting of 0.02 M sodium phosphate buffer, pH6.9, (containing 6 mM NaCl), 0.2–0.25 U of PPA and inhibitors (13.8–214.3 μM) in DMSO was incubated at 37°C for 10 min. After pre-incubation, the substrate starch (1%, w/v) solution was added to the reaction mixture and further incubated for 15 min. The control PPA (0.21 U) without any inhibitor represented 100% enzyme activity. One unit of enzyme activity is defined as the amount of enzyme required to release one micromole of maltose from starch/maltopentaose per min under the assay conditions. The other quantifiers calculated were: % Relative enzyme activity = (enzyme activity of test/enzyme activity of control)*100. % inhibition = (100 − % relative enzyme activity).
The IC50 values were determined from plots of percent inhibition versus inhibitor concentration and calculated by logarithmic regression analysis. To eliminate the absorbance produced by the compound, appropriate controls were included. The known PPA/HPA inhibitor acarbose was used as a positive control at a concentration range of 10–50 μM.

[5] = target: T3, secreted pancreatic α-amylase of AR42J cells (Rattus norvegicus, UniProt P00689); experiment: Bioactivity: inhibition of secreted pancreatic α-amylase in dexamethasone-induced AR42J cells, incl. starch load test (DNSA); type: cell-based; settings: AR42J
T3 construct: host or cells: AR42J rat pancreatic acinar cells, induced with 10 nM dexamethasone
T3 sequence (P00689 16-508): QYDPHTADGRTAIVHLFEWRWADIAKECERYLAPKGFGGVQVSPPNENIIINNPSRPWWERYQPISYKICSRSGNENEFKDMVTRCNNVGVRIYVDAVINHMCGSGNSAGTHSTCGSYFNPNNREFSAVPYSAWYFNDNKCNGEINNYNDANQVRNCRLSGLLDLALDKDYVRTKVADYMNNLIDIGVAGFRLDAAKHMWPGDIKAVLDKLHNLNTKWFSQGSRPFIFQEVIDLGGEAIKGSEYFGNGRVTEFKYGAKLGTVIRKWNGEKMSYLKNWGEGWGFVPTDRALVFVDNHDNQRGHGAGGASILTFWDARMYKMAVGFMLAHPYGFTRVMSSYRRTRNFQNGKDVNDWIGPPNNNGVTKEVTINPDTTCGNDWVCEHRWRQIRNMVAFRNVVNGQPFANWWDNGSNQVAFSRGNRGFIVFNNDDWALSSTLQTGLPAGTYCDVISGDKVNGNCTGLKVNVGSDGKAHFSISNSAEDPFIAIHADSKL
Source text: Appropriate medium and DMSO controls were simultaneously set up.

[6] = test system: AR42J rat pancreatic acinar cells; settings: 24 h, 3.5 μM
Experimental: (§1) Cells were seeded at 2×10^4 cells well^-1 onto 96 wells culture dish. […] Appropriate medium and DMSO controls were simultaneously set up. […] At the end of 24 h incubation period the culture media was removed from the samples and fresh culture media (100 μl) containing 20 μl of MTT tetrazolium bromide (5 mg ml^-1) added and incubated for 3 h at 37°C. Metabolically active cells reduce MTT to insoluble purple formazan dye crystals, which were dissolved by addition of 300 μl DMSO solution at the end of the incubation period and quantitated at 550 nm [34].

[7] = test system: AR42J rat pancreatic acinar cells; experiment: Cytotoxicity in AR42J cell line (MTT); settings: AR42J; azadiradione 3.5 μM, gedunin 3.3 μM (Fig 3)
Experimental: as §1

[8] = Cytotoxicity in AR42J cell line (MTT); settings: rat, AR42J pancreatic acinar cells
Experimental: as §1

[9] = linear van't Hoff plot, 298–333 K

For `CC(=O)O[C@@H]1C[C@H]2C(C)(C)C(=O)C=C[C@]2(C)[C@H]2CC[C@]3(C)C(=CC(=O)[C@H]3c3ccoc3)[C@@]21C` [azadiradione], the “-ΔG°” value ([1]; 298 K) was 21.25 k J mol^-1, the K a ([1]; 298 K) was 4300 M⁻¹ and the Kd ([1]; 298 K) was 200 ± 3 µM. The “-ΔG°” value ([1]; 303 K) was 20.88 k J mol^-1, the K a ([1]; 303 K) was 3900 M⁻¹ and the Kd ([1]; 303 K) was 200 ± 1 µM. For the same compound, the “-ΔG°” value ([1]; 308 K) was 20.27 k J mol^-1, the K a ([1]; 308 K) was 2700 M⁻¹ and the Kd ([1]; 308 K) was 300 ± 5 µM. For the same compound, the “-ΔG°” value ([1]; 313 K) was 20.29 k J mol^-1, the K a ([1]; 313 K) was 2400 M⁻¹ and the Kd ([1]; 313 K) was 400 ± 7 µM. For the same compound, the “-ΔG°” value ([1]; 323K) was 19.87 k J mol^-1, the K a ([1]; 323K) was 1600 M⁻¹ and the Kd ([1]; 323K) was 600 ± 2 µM. For the same compound, the “-ΔG°” value ([1]; 333K) was 18.54 k J mol^-1, the K a ([1]; 333K) was 810 M⁻¹ and the Kd ([1]; 333K) was 1200 ± 30 µM. The “Maximal quenching of intrinsic HPA fluorescence” value ([1]; 350 nm, azadiradione 3.9–118 μM, gedunin 2.0–51.86 μM) was 33%, the “Maximum ΔG° of binding” value ([1]; calculated from binding constants, maximal affinity at 298 K) was -5.079 kcal/mol and the “Enthalpy (ΔHvH)” value [1, 9] was -10 kcal/mol. The “Entropy (-ΔS)” value [1, 9] was 70.09 J mol^-1K^-1, the “Stoichiometry of HPA inactivation” value [2] was 0.66 and the Ki ([3]; maltopentaose as substrate, secondary plots) was 42.2 µM. For the same compound, the “Apparent K i ′” value ([3]; starch as substrate, secondary plots) was 75.8 µM, the “Mode of HPA inhibition” value ([3]; substrates starch and maltopentaose, Lineweaver-Burk) was “mixed” and the IC50 [4] was 138 µM. The “Secreted amylase inhibition in starch load test” value ([5]; 0.5% (w/v) starch, up to two hours) was 22.9%, the “Amylase inhibition at the cytotoxic IC50 concentration” value ([5]; 24 h, at 11.1, 13.4 and 4.1 μM respectively) was 70.1% and the inhibition at 3.5 µM ([5]; AR-42J, 3.5 μM) was 41.8%. The Cell death [6] was 8.6%, the “Cell morphology versus controls” value [7] was “no morphological change” and the IC50 at 24 h [8] was 11.1 µM.
